Reference: patent US9012655B2, “Antimicrobial/adjuvant compounds and methods” (Denouamed, Inc., priority 2011, dated 2015)
≈ marks a conversion by molar mass, not a printed value. Read-outs that look alike come from different tables or passages of the source.

Columns and labels:
E. coli D22 = experiment: MIC, NCCLS M7-A6 broth microdilution, E. coli D22; format: cell-based; conditions: 35 degrees Celsius; for MIC: Escherichia coli, D22, 16 to 20 h
Protocol: (§1) Susceptibilities to the compounds were determined using the National Committee for Clinical Laboratory Standards (NCCLS) M7-A6 broth microdilution method. Cation-adjusted Mueller-Hinton broth (Ca^2+, 25 μg/mL; Mg^2+, 12.5 μg/mL) microdilution panels were prepared to contain antimicrobial doubling dilution concentrations of an appropriate range. DMSO (dimethylsulfoxide) controls were incorporated into the panel to mimic the quantity of DMSO used in dissolving some of the compounds at the higher concentrations. Each final panel well volume was 100 μL with a bacterial inoculum of 5×10^5 CFU (colony forming units)/mL of the relevant bacterium. Panels were read following 16 to 20 h of incubation at 35 degrees Celsius in ambient air. The MIC (minimum inhibitory concentration) was defined as the lowest concentration of antimicrobial inhibiting visible growth.

AcpS enzyme = AcpS enzyme (Escherichia coli, UniProt P24224); experiment: Measurement of AcpS inhibition ([3H]acetyl-CoA incorporation into apo-ACP); format: biochemical; conditions: % activity vs blank-subtracted counts
Sequence of AcpS enzyme (P24224 whole entry): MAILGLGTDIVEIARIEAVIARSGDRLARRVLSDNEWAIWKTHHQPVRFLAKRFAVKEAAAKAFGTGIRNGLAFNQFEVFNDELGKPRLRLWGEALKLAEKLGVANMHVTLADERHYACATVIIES
Protocol: [^3H]Acetyl-CoA was mixed as 1 volume of Perkin Elmer NET290 radiolabeled stock (e.g. 0.1 mCi/ml, 3.7 Ci/mmol in Na-acetate, pH 4.5-5.0=27 μM) with 1.2 volumes of 1 mM unlabelled acetyl-CoA (Sigma). Trichloroacetic acid was prepared as a 10% w/v solution. Bovine serum albumin was prepared as a 25 mg/ml solution in water. DTT was prepared as a 50 mM solution in water.
• 1. A standard reaction contained the following in a total volume of 10 μl:
• 2. Tubes were incubated at RT. [^3H]acetyl-CoA was added last to start the reaction. To stop the reaction, 2 μl was removed to a 1.5-ml microfuge tube containing 800 μl cold 10% TCA. Up to four time points were collected for each reaction, e.g. at 5 min, 10 min, 30 min, and 60 min. • 3. 20 μl of 25 mg/ml BSA was added to each tube, mixed and incubated on ice for 10 min, then centrifuged at 12,000 g for 5 min to form a pellet. Supernatant was removed using P1000. • 4. Each pellet was washed twice with 800 μl of cold 10% TCA each time, then centrifuged at 12,000 g for 5 min after each wash. The supernatant was discarded. Each pellet was resuspended in 50 μl of formic acid. The suspension was transferred to a scintillation vial and radioactivity was measured in 2 ml of liquid scintillation cocktail.
The random (stochastic) error in scintillation counting is proportional to the square root of the counts (not dpm) accumulated in the counting period; i.e. 10% for 100, 3.3% for 1,000, 1% for 10,000, etc. Provided radioactive counts (dpm) are in the thousands, the assay provides useful data. Results are reported in terms of % activity with respect to the blank-subtracted counts for working substrate. A % activity of less than about 40% is indicative of AcpS enzyme inhibition by the test compound at that concentration.

[1] = test system: Methicillin-Resistant Staph. aureus (MRSA); experiment: MIC, NCCLS M7-A6 broth microdilution, MRSA; format: cell-based; conditions: 16 to 20 h, 35 degrees Celsius; for MIC: Staphylococcus aureus, MRSA
Protocol: as §1

[2] = test system: Staphylococcus aureus EUP MRSA002; experiment: MIC panel of challenge pathogens (CLSI), EUP MRSA002; format: cell-based
Protocol: The inocula for each bacterial strain were prepared by picking 5-10 distinct colonies from the culture plates and suspending them in the appropriate broth as per Clinical and Laboratory Standards Institute (CLSI) guidelines M07-A8, M24-A or M11-A7 as appropriate. The inoculum was resuspended by vigorous shaking on a vortex mixer for 15 s. The turbidity was then adjusted to McFarland standard 0.5 ([…]). The inoculum was further diluted in the appropriate media for MIC tests to give a final inoculum in each well of 2-8×10^5 CFU/ml. MICs were tested in the appropriate broth in accordance with the appropriate CLSI guidelines.
A stock solution of each compound was prepared at a concentration of 1.28 g/L in DMSO. The stock was further diluted in the appropriate media to give a top starting concentration of 128 mg/L in the assay. 100 μL of the appropriate media, as per CLSI guidelines, was dispensed into each well in columns 2-12. 200 μL of the each compound solution (at 256 mg/L) was dispensed into each well in column 1. 100 μL aliquots were pipetted from column 1 wells and dispensed into column 2 with a multichannel pipette (±2% coefficient of variation) thus diluting two-fold. 100 μL samples were then pipetted from column 2 wells and dispensed into column 3. The process was repeated through to column 10. The final 100 μL of diluted drug from column 10 was then discarded. Row 11 acted as a positive control (no compound, but organisms added), Row 12 acted as a negative control (no compound, and no organisms added).
100 μL of the appropriate inoculum suspension in the appropriate media, as per CLSI guidelines, was added to the appropriate wells. […] All plates were incubated in the dark under aerobic or anaerobic conditions at 30-37° C. for 24-48 hours, according to the appropriate CLSI guideline. Plates were read visually 24-48 hours post inoculation. Endpoints of 100% inhibition were determined (CLSI interpretation endpoints following visual examination).
MIC50, MIC80, and 100% inhibition results are reported below in μg/mL in the following Tables, indicating each compound tested against a given species and strain: […]

Ps. aeruginosa = experiment: Combination MICs for antibiotic adjuvant potential; format: cell-based
Protocol: as §1
Generally following the procedure of Example 9, MICs of ampicillin, erythromycin, and azithromycin were determined against Ps. aeruginosa. Parallel to this effort, solutions were prepared which were identical. To each of these were added 0.5 μL of stock solution of a given compound of the present invention, then diluted to produce a final concentration of 125 μM, 60 μM, and/or 30 μM for determination of adjuvant activity. Compounds were determined to be antibiotic adjuvants if the mixture produced a lower MIC than that of the antibiotic agent alone.

[3] = test system: Streptococcus pneumoniae Group A; experiment: MIC against Streptococcus pneumoniae Group A; format: cell-based; conditions: initial measurement, Todd Hewitt broth
Protocol: as §1
Generally following the procedure of Example 9, but using Todd Hewitt broth (beef heart digest) rather than Mueller-Hinton broth, MICs were initially measured against Streptococcus pneumoniae Group A for compounds of the present invention as follows: […]

[4] = Staphylococcus aureus EUP MRSA002
[5] = EUPMRSA002, Staphylococcus aureus EUP MRSA002, read-out: 100% inhibition
[6] = EUPMRSA002, Staphylococcus aureus EUP MRSA002, read-out: MIC50 (50%)
[7] = EUPMRSA002, Staphylococcus aureus EUP MRSA002, read-out: MIC80 (80%)

Compound	MIC (E. coli D22) [µM]	activity at 50 µM (AcpS enzyme; test compound 50 uM) [%]	remaining activity at 500 µM (AcpS enzyme; test compound 500 uM) [%]	MIC [1] [µM]	MIC [2, 5] [µg/mL]	MIC50 [2, 6] [µg/mL]	MIC80 [2, 7] [µg/mL]	also measured
Cc1ccc(-c2cc(-c3nn[nH]n3)cc(-c3ccccc3-c3ccccc3)c2)c2ccccc12 [DNM0474]								MIC E coli D22 (E. coli D22; 16 to 20 h): >125 µM; % AcpS activity at 50 uM (AcpS enzyme; test compound 50 uM): 15.08%; % AcpS activity @ 500 uM (AcpS enzyme; test compound 500 uM): 0.3%; MIC MRSA [1]: 2 µM (≈ 0.877 µg/mL); 100% inhibition [2, 4]: 0.5 µg/mL; MIC50 (50%) [2, 4]: 0.5 µg/mL (≈ 1.14 µM); MIC80 (80%) [2, 4]: 0.5 µg/mL (≈ 1.14 µM)
Clc1ccc(-c2cc(-c3nnn[nH]3)sc2-c2ccc(Cl)cc2)cc1 [DNM0487, 5-(4,5-Bis(4-chlorophenyl)thiophen-2-yl)-1H-tetrazole]	> 125	3.34	0.08	8 (≈ 2.99 µg/mL)	1 (≈ 2.68 µM)	1 (≈ 2.68 µM)	1 (≈ 2.68 µM)	MIC (Ps. aeruginosa; Pseudomonas aeruginosa, compound alone, read-out: standalone MIC): > 2000 µM
Cc1cc(Cl)ccc1-c1cc(-c2nnn[nH]2)sc1-c1ccc(Cl)cc1C [DNM0488, 5-(4,5-Bis(4-chloro-2-methylphenyl)thiophen-2-yl)-1H-tetrazole]	125 (≈ 50.2 µg/mL)	11.5	0.32	4 (≈ 1.61 µg/mL)	0.5 (≈ 1.25 µM)	0.5 (≈ 1.25 µM)	0.5 (≈ 1.25 µM)	
Cc1ccc(Cl)cc1-c1cc(-c2nnn[nH]2)sc1-c1cc(Cl)ccc1C [DNM0508, 5-(4,5-Bis(5-chloro-2-methylphenyl)thiophen-2-yl)-1H-tetrazole]	> 125	44.9	0.1	4 (≈ 1.61 µg/mL)	1 (≈ 2.49 µM)	1 (≈ 2.49 µM)	1 (≈ 2.49 µM)	
Fc1ccc(-c2cc(-c3nnn[nH]3)sc2-c2ccc(F)c3ccccc23)c2ccccc12 [DNM0537, 5-(4,5-Bis(4-fluoronaphthalen-1-yl)thiophen-2-yl)-1H-tetrazole]	125 (≈ 55.1 µg/mL)	1.28	0.14	2 (≈ 0.881 µg/mL)	1 (≈ 2.27 µM)	0.5 (≈ 1.14 µM)	1 (≈ 2.27 µM)	fold lower MIC for erythromycin (Ps. aeruginosa; compound at 30 μM): ≤ 7 fold
CC(C)c1cc(Cl)ccc1-c1cc(-c2nnn[nH]2)sc1-c1ccc(Cl)cc1C(C)C [DNM0548, 5-(4,5-Bis(4-chloro-2-iso-propylphenyl)thiophen-2-yl)-1H-tetrazole]	60 (≈ 27.4 µg/mL)	3.1	0.1	4 (≈ 1.83 µg/mL)	≤ 0.25	≤ 0.25	≤ 0.25	MIC [3]: < 0.25 µM; fold lower MIC for ampicillin (Ps. aeruginosa; compound at 125 μM): up to 125 fold; fold lower MIC for erythromycin (Ps. aeruginosa; compound at 125 μM): up to 125 fold
CC(C)c1cc(Cl)ccc1-c1cc(C(=O)O)sc1-c1ccc(Cl)cc1C(C)C [DNM0566, 4,5-Bis(4-chloro-2-isopropylphenyl)thiophene-2-carboxylic acid]					≤ 0.25	≤ 0.25	≤ 0.25	
Cc1cc(Cl)ccc1-c1cc(-c2nnn[nH]2)sc1-c1ccc(C)c2ccccc12 [DNM0576, 5-(4-(4-Chloro-2-methylphenyl)-5-(4-methylnaphthalen-1-yl)thiophen-2-yl)-1H-tetrazole]	> 125	5.88	0.15	4 (≈ 1.67 µg/mL)	0.5 (≈ 1.2 µM)	0.5 (≈ 1.2 µM)	0.5 (≈ 1.2 µM)	MIC [3]: 0.5 µM (≈ 0.208 µg/mL)
CCCCc1cccc(-c2cc(-c3nnn[nH]3)sc2Cc2ccc(Cl)cc2)c1 [DNM0606, 5-(4-(3-Butylphenyl)-5-(4-chlorobenzyl)thiophen-2-yl)-1H-tetrazole]					≤ 0.25	≤ 0.25	≤ 0.25	
Clc1ccc(Cc2sc(-c3nnn[nH]3)cc2-c2cccc(CC3CCCC3)c2)cc1 [DNM0610, 5-(5-(4-Chlorobenzyl)-4-(3-(cyclopentylmethyl)phenyl)thiophen-2-yl)-1H-tetrazole]					0.5 (≈ 1.15 µM)	0.5 (≈ 1.15 µM)	0.5 (≈ 1.15 µM)	
CN[C@H](CC(C)C)C(=O)N[C@H]1C(=O)N[C@@H](CC(N)=O)C(=O)N[C@H]2C(=O)N[C@H]3C(=O)N[C@H](C(=O)N[C@H](C(=O)O)c4cc(O)cc(O)c4-c4cc3ccc4O)[C@H](O)c3ccc(c(Cl)c3)Oc3cc2cc(c3O[C@@H]2O[C@H](CO)[C@@H](O)[C@H](O)[C@H]2O[C@H]2C[C@](C)(N)[C@H](O)[C@H](C)O2)Oc2ccc(cc2Cl)[C@H]1O [Vancomycin, reference compound]								MIC ([2]; Staphylococcus aureus, EUPMRSA002, read-out: 100% inhibition): 0.5 µg/mL (≈ 0.345 µM); MIC50 ([2]; Staphylococcus aureus, EUPMRSA002, read-out: MIC50 (50%)): 0.5 µg/mL (≈ 0.345 µM); MIC80 ([2]; Staphylococcus aureus, EUPMRSA002, read-out: MIC80 (80%)): 0.5 µg/mL (≈ 0.345 µM)
